Measured values: patent publication US9060537B2, “Method for enhancing rebaudioside D solubility in water” (PEPSICO, INC., priority 2012, dated 2015)

Experiments:
[1] = Modified Reb D solubility in water; format: physicochemical
[2] = co-crystallization of quercetin with caffeine, mass ratio 2:1; cited from earlier work
[3] = co-crystallization of quercetin with caffeine, mass ratio 2:1; cited from earlier work; remark: listed apart in the source

Row | Structure (SMILES) | Solubility (23° C.) (ppm) ([1]; in water, 23° C.) | solubility of the Reb D after spray drying the clear Reb D solution to a fine powder ([1]; spray dried without enhancer or stabilizer) [ppm] | solubility in water ([1]; water at 23° C. / room temperature, untreated Reb D or powders as worded) [ppm] | maximum solubility in heated water ([1]; water heated above 70° C., typically 80 to 100° C.) [wt %] | solubility increase [2] [fold] | bioavailability increase [3] [fold]
1 | C=C1C[C@@]23CC[C@H]4[C@@](C)(CCC[C@@]4(C)C(=O)O[C@@H]4O[C@H](CO)[C@@H](O)[C@H](O)[C@H]4O[C@@H]4O[C@H](CO)[C@@H](O)[C@H](O)[C@H]4O)[C@@H]2CC[C@]1(O[C@@H]1O[C@H](CO)[C@@H](O)[C@H](O[C@@H]2O[C@H](CO)[C@@H](O)[C@H](O)[C@H]2O)[C@H]1O[C@@H]1O[C@H](CO)[C@@H](O)[C@H](O)[C@H]1O)C3 [Control, Rebaudioside D] | 350 | 1500 | 300 | 2.5 |  | 
2 | O=c1c(O)c(-c2ccc(O)c(O)c2)oc2cc(O)cc(O)c12 [quercetin] |  |  |  |  | 14 | 10
